Assay results from US7968098B2, “HLA-A24-binding KIF-derived peptide” (Kurume University, priority 2006, dated 2011).
Like-named read-outs stand apart in the source and are kept apart here. No end group written: not given here.

What was measured:
KNS-81 cells = test: 6-h 51Cr-release cytotoxicity assay of peptide-stimulated PBMCs / CD8+ T cells; type: cell-based, human; settings: for Cytotoxicity of peptide-induced CD8+ T cells on addition of anti-HLA class I mAb / Cytotoxicity on addition of unlabeled C1R-A24 cells pre-pulsed with corresponding KIF peptide (cold inhibition): KNS-81 cells; for Cytotoxicity of peptide-induced CD8+ T cells on addition of anti-HLA class I mAb: FIG. 3A, not inhibited by anti-HLA class II (HLA-DR) or anti-CD14 mAb; for Cytotoxicity on addition of unlabeled C1R-A24 cells pre-pulsed with corresponding KIF peptide (cold inhibition): FIG. 3B, not inhibited by HIV peptide-pulsed C1R-A24 cells; for Cytotoxicity of peptide-stimulated PBMCs against KNS-81 cells: patients 3 and 5, HLA-A24+ KNS-81 vs HLA-A24- No. 11 cells and HLA-A24+ T-cell blasts
Description: Peptide-stimulated PBMCs were tested for their cytotoxicity against No. 11 (HLA-A24 negative) and KNS-81 (HLA-A24 positive) by a standard 6-h ^51Cr-release assay. Phytohaemagglutinin (PHA)-activated T cells (T cell blast) from HLA-A24 positive healthy donors were used as a negative control. The PBMCs were stimulated with each of the KIF peptides (10 μg/ml) in the presence of IL-2 (100 units/ml) every 3 days for 15 days, followed by incubation with IL-2 alone for an additional 15 days. After CD8^+ T cells were positively isolated using a CD8-positive isolation kit (Dynal, Oslo, Norway), 2,000 ^51Cr-labeled cells per well were cultured with effector cells in 96-round-well plates. The specific ^51Cr-release was calculated according to the following formula: % specific lysis=(test sample release−spontaneous release)×100/(maximum release−spontaneous release). Spontaneous release was determined using the supernatant of the sample incubated with no effector cells, and the maximum release was then determined by the supernatant of the sample incubated with 1% Triton X (Wako Pure Chemical Industries, Osaka, Japan). In some experiments, anti-HLA class I (W6/32, mouse IgG2a) (BioLegend, Camino Santa Fe, San Diego, Calif., USA), anti-HLA class II (HLA-DR) (L243, mouse IgG2a) (ATCC #HB-55), and anti-CD14 (JML-H14, mouse IgG2a) (established in Department of Immunology, Kurume University) mAb were added to the wells at the initiation of the culture. The specificity of peptide-stimulated PBMCs was also confirmed by a cold inhibition assay. 20,000 unlabeled C1R-A24 cells, which were pre-pulsed with either the HIV peptide or a corresponding peptide, were used as cold target cells. Unlabeled C1R-A24 cells were added at a hot to cold target ratio of […].

[1] = test system: anti-peptide immunoglobulin G (IgG) in plasma; test: Anti-peptide IgG in plasma measured by the Luminex system; type: binding, human; settings: for Positive cases/total cases, Patients: Table 3, IgGs reactive to peptide in plasma of glioma patients; for Positive cases/total cases, Healthy donors: Table 3, IgGs reactive to peptide in plasma of healthy donors; for Positive cases/total cases, Total: Table 3, patients plus healthy donors; for Recognition by IgGs in the plasma compared with the other peptides: plasma of glioma patients and healthy donors; for Total (IgG-positive cases/total cases): positive = >1.25 times no peptide control
Description: The levels of anti-peptide immunoglobulin G (IgG) were measured by the Luminex™ system as previously reported (Komatsu N et al, Scand J Clin Invest 2004; 64: 1-11). In brief, plasma was incubated with 25 μl of peptide-coupled color-coded beads (Luminex Corp., Austin, Tex., USA) for 2 h at room temperature on a plate shaker. After incubation, the mixture was washed with a vacuum manifold apparatus and incubated with 100 μl of biotinylated goat anti-human IgG (BA-3080, Vector Laboratories, Burlingame, Calif., USA) for 1 h at room temperature. The plate was then washed, and 100 μl of streptavidin-PE (S-866, Molecular Probes, Eugene, Oreg., USA) was added to each well and was incubated for 30 min at room temperature on a plate shaker. The bound beads were washed three times followed by the addition of 100 μl of Tween-PBS to each well. Fifty μl of each sample was then examined using the Luminex™ system.
Next, the abilities of the KIF-derived peptides to be recognized by IgGs of glioma patients were examined, because IgGs reactive to CTL-directed peptides are detectable in the plasma of patients with different types of cancer (Nakatsura T et al, Eur J Immunol 32: 826-836, 2002), along with that levels of IgG well correlated with clinical responses of patients who received peptide vaccination as reported previously (Mine T et al, Clin Cancer Res 10: 929-937, 2004; Yajima N et al, Clin Cancer Res 11: 5900-5911, 2005). IgGs reactive to a corresponding peptide were judged to be significant when the immunofluorescence intensity in 1:100-diluted plasma exceeded 1.25 times that of the control samples with no peptides. […] Based on these findings, these 8 KIF peptides (3 for KIF1C, 3 for KIF3C, and 2 for KIF21B) were the focus of the following experiments.

[2] = test system: PBMCs of HLA-A24+ glioma patients; type: cell-based, human; settings: for Total (patients with induction of peptide-reactive CTLs): HLA-A24+ glioma patients, positive = P<0.05 and >100 pg/ml IFN-γ over HIV peptide; for IFN-γ: vs HIV peptide
[3] = PBMCs of HLA-A24+ glioma Patient 1, 10 μg/ml peptide
[4] = PBMCs of HLA-A24+ glioma Patient 2, 10 μg/ml peptide
[5] = PBMCs of HLA-A24+ glioma Patient 3, 10 μg/ml peptide
[6] = PBMCs of HLA-A24+ glioma Patient 4, 10 μg/ml peptide
[7] = PBMCs of HLA-A24+ glioma Patient 8, 10 μg/ml peptide
[8] = PBMCs of HLA-A24+ glioma Patient 9, 10 μg/ml peptide
[9] = PBMCs of HLA-A24+ glioma Patient 10, 10 μg/ml peptide
[10] = PBMCs of HLA-A24+ glioma Patient 5, 10 μg/ml peptide
[11] = Healthy donor 2, 1:100-diluted plasma
[12] = Healthy donor 4, 1:100-diluted plasma
[13] = glioma Patient 4, 1:100-diluted plasma
[14] = glioma Patient 8, 1:100-diluted plasma
[15] = glioma Patient 9, 1:100-diluted plasma

| Sequence | Cytotoxicity of peptide-induced CD8+ T cells on addition of anti-HLA class I mAb (KNS-81 cells) | Cytotoxicity on addition of unlabeled C1R-A24 cells pre-pulsed with corresponding KIF peptide (cold inhibition) (KNS-81 cells) | Cytotoxicity of peptide-stimulated PBMCs against KNS-81 cells (KNS-81 cells) | Positive cases/total cases, Patients [1] | Positive cases/total cases, Healthy donors [1] | Positive cases/total cases, Total [1] | Recognition by IgGs in the plasma compared with the other peptides [1] | Total (patients with induction of peptide-reactive CTLs) [2] | IFN-γ [2, 3] | IFN-γ [2, 4] | IFN-γ [2, 5] | IFN-γ [2, 6] | IFN-γ [2, 7] | IFN-γ [2, 8] | IFN-γ [2, 9] | IFN-γ [2, 10] | Immunofluoresence intensity [1, 11] | Immunofluoresence intensity [1, 12] | Total (IgG-positive cases/total cases) ([1]; Table 2, glioma patients) | Total (IgG-positive cases/total cases) ([1]; Table 2, healthy donors) | further results |
| --- | --- | --- | --- | --- | --- | --- | --- | --- | --- | --- | --- | --- | --- | --- | --- | --- | --- | --- | --- | --- | --- |
| KYKAMESKL [KIF3C 512-520] | significantly inhibited | significantly inhibited | higher level of cytotoxicity against HLA-A24^+ KNS-81 cells | – | – | – | – | – | – | – | – | – | – | – | – | – | – | – | – | – | – |
| RYRAENIMF (KIF3C 702-710 peptide) | – | – | – | 7/10 | 9/10 | 16/20 | more frequently | 3/10 | 11 pg/mL | 0 pg/mL | 73 pg/mL | 0 pg/mL | 96 pg/mL | 22 pg/mL | 0 pg/mL | – | – | – | – | – | – |
| IYCERVRDLL [KIF1C 149-158] | significantly inhibited | significantly inhibited | higher level of cytotoxicity against HLA-A24^+ KNS-81 cells | – | – | – | – | – | – | – | – | – | – | – | – | – | – | – | – | – | – |
| NYLQEQKERL (KIF3C 458-467 peptide) | – | – | – | 4/10 | 4/10 | 8/20 | more frequently | 3/10 | 34 pg/mL | 0 pg/mL | 30 pg/mL | – | 38 pg/mL | – | 0 pg/mL | 66 pg/mL | – | – | – | – | IFN-γ ([2]; PBMCs of HLA-A24+ glioma Patient 6, 10 μg/ml peptide): 55 pg/mL |
| RYADRTKQI (KIF1C 340-348 peptide) | – | – | – | 7/10 | 7/10 | 14/20 | more frequently | 3/10 | 66 pg/mL | 16 pg/mL | – | 80 pg/mL | 96 pg/mL | 52 pg/mL | 0 pg/mL | – | 21.5 | 45.3 | 7/10 | 7/10 | Immunofluoresence intensity ([1]; Healthy donor 5, 1:100-diluted plasma): 59.0; Immunofluoresence intensity [1, 13]: 26.0; Immunofluoresence intensity [1, 14]: 14.8; Immunofluoresence intensity [1, 15]: 17.5; IFN-γ ([2]; PBMCs of HLA-A24+ glioma Patient 7, 10 μg/ml peptide): 65 pg/mL |
| IYCERVRDL (KIF1C 149-157 peptide) | – | – | – | 7/10 | 8/10 | 15/20 | more frequently | 4/10 | 92 pg/mL | 0 pg/mL | – | 50 pg/mL | 0 pg/mL | – | 0 pg/mL | 0 pg/mL | 31.8 | 47.8 | 7/10 | 8/10 | Immunofluoresence intensity [1, 13]: 29.5; Immunofluoresence intensity [1, 14]: 12.3; Immunofluoresence intensity [1, 15]: 27.3 |
